Measured values taken from patent publication US20230158157A1, “POTENT AND SELECTIVE DEGRADERS OF ALK” (DANA-FARBER CANCER INSTITUTE, INC., priority 2020, published 2023).
Read-outs that look alike come from different tables or passages of the source. Values belong to the molecule of their own block, whether it stands above or below them.

Key:
Assay type in all cases: cell-based
FAK = target: T1, FAK (Homo sapiens, UniProt Q05397); test: FAK degradation (H3122 cells); conditions: for Dmax: NCI-H3122, Table 3
T1 construct: FAK Degradation; endogenous in cells; host or cells: H3122

EML4-ALK = target: T2, EML4-ALK (Homo sapiens, UniProt Q9UM73); test: EML4-ALK HiBit degradation assay in CRISPR-tagged H3122 cells (Nano-Glo HiBit Lytic Detection)
T2 construct: endogenous in cells; host or cells: H3122 (NSCLC), single-cell clone after CRISPR knock-in of HiBit; the other entry of the earlier key: EML4 (Q9HC35, Echinoderm microtubule-associated protein-like 4)

H3122 cells = test: CTG; conditions: read-out: CTG IC50
G1202R EML4-ALK V3 = target: T3, G1202R EML4-ALK V3 (Homo sapiens, UniProt Q9UM73, G1202R); test: Western blot of pALK Tyr1507, ALK and tubulin in G1202R EML4-ALK V3 Ba/F3 cells
T3 construct: expressed in transfected cells; host or cells: Ba/F3; the other entry of the earlier key: EML4 (Q9HC35, Echinoderm microtubule-associated protein-like 4)
Experimental: (§1) Cells treated with DMSO, compound 96, negative control of 96 or Loratinib at indicated concentrations (nM).
(§2) The cells were collected and washed with PBS buffer. Cell lysates were prepared by using NP40 lysis buffer (Invitrogen™) supplemented with complete protease inhibitor cocktail (Roche), PhosSTOP™ phosphatase inhibitor cocktail (Roche) and PMSF (1 mM). The lysates were cleared by centrifugation and resolved using Bolt™ 4-12% Bis-Tris plus gels and Western blotted to detect proteins of interest. Antibodies to phospho-ALK^Tyr1507 and tubulin (#14678S and #3873, Cell Signaling Technologies®) were used according to the manufacturers' instructions. For Western Blot visualization, Odyssey® Clx (Li-cor) was utilized.

WT EML4-ALK V3 = target: T4, WT EML4-ALK V3 (Homo sapiens, UniProt Q9UM73); test: Western blot of pALK Tyr1507, ALK and tubulin in WT EML4-ALK V3 Ba/F3 cells
T4 construct: expressed in transfected cells; host or cells: Ba/F3; the other entry of the earlier key: EML4 (Q9HC35, Echinoderm microtubule-associated protein-like 4)
Experimental: as §1, §2

[1] = NCI-H3122, Table 3, H3122 cells, 16 hours, read-out: ALK Degradation (H3122 cells) Dmax
[2] = Table 3, H3122 cells, 16 hours, read-out: ALK Degradation (H3122 cells) DC50
[3] = Homo sapiens, NCI-H3122, Table 3
[4] = compared to Alectinib and Lorlatinib
[5] = NCI-H3122, Table 1, first Dmax column, H3122 EML4-ALK-HiBit, 16 hours, read-out: Degradation Dmax
[6] = NCI-H3122, Table 1, average Dmax, read-out: Degradation Avg. Dmax
[7] = Table 1, first DC50 column, H3122 EML4-ALK-HiBit, 16 hours, read-out: Degradation DC50
[8] = Table 1, average DC50, read-out: Degradation Avg. DC50
[9] = Homo sapiens, NCI-H3122, Table 1
[10] = NCI-H3122, Table 1, second Dmax column, H3122 EML4-ALK-HiBit, 16 hours, read-out: Degradation Dmax
[11] = Table 1, second DC50 column, H3122 EML4-ALK-HiBit, 16 hours, read-out: Degradation DC50

T2 sequence (Q9UM73 with tags, fused parts or gaps): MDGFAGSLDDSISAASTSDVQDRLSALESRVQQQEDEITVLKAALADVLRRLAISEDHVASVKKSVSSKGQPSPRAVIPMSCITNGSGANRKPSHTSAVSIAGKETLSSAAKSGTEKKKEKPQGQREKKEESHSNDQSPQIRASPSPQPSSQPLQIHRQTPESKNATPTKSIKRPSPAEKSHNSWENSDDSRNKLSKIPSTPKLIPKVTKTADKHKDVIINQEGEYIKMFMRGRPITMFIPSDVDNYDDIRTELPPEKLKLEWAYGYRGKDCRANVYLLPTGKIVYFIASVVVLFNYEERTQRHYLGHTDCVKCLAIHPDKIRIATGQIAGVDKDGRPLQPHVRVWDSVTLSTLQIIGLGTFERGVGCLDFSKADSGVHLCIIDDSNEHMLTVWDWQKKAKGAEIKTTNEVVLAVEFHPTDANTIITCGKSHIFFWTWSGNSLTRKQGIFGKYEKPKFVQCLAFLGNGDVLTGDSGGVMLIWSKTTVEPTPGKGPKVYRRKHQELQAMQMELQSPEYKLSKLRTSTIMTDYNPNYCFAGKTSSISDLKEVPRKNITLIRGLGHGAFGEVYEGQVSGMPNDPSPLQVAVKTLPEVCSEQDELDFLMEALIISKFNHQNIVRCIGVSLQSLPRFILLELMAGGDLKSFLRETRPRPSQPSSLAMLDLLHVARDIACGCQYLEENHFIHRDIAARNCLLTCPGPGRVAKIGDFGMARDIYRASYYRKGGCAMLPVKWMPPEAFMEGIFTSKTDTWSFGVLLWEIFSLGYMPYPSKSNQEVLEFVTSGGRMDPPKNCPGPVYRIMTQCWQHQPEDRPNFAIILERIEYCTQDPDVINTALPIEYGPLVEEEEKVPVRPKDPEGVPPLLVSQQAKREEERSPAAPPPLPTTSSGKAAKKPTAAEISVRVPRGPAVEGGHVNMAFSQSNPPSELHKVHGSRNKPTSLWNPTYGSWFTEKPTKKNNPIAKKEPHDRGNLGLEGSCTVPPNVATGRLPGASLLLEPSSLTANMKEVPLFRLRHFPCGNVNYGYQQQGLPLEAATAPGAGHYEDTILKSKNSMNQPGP
T1 sequence (Q05397 whole entry): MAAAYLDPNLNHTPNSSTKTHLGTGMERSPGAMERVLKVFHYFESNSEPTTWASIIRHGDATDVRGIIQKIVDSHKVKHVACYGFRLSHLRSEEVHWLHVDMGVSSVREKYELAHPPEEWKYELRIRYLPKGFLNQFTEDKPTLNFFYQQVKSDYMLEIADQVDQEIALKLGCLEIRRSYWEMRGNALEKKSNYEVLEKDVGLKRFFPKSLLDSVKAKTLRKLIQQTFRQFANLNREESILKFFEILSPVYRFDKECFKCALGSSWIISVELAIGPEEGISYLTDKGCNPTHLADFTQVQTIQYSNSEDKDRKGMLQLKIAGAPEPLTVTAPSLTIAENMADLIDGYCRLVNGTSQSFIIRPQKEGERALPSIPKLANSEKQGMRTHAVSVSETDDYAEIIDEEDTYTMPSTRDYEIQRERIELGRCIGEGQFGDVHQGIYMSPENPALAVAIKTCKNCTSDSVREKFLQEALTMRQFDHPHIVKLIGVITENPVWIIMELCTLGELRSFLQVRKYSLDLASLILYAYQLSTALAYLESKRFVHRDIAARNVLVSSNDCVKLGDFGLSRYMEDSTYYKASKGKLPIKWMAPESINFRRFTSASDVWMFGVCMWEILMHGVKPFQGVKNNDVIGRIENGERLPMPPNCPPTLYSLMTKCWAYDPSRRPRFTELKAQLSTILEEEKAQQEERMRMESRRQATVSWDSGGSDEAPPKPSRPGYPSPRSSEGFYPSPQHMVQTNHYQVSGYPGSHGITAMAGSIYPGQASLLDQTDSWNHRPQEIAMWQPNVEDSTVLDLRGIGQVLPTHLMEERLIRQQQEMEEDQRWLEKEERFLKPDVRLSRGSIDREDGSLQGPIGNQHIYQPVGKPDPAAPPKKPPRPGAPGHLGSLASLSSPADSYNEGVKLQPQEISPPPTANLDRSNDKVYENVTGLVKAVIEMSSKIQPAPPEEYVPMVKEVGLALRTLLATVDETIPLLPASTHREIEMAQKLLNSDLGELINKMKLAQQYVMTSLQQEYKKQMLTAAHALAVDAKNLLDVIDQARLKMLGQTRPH
T3 sequence (Q9UM73 1058-1620 G1202R limits assumed): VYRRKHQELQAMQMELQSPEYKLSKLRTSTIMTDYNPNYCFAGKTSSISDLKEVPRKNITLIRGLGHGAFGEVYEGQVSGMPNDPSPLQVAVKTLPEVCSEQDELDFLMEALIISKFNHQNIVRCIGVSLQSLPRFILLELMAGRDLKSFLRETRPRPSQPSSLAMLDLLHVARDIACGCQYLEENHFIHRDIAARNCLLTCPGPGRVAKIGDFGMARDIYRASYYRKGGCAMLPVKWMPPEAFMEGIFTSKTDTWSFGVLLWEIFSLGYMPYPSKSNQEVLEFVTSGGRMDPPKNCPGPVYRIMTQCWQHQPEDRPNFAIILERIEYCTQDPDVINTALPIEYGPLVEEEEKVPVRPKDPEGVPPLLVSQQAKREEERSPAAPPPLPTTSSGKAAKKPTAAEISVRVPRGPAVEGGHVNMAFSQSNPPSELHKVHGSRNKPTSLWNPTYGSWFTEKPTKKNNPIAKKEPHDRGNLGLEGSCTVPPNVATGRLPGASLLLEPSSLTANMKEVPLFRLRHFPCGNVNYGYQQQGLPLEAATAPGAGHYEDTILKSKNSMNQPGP
T4 sequence (Q9UM73 1058-1620 limits assumed): as the sequence (Q9UM73 1058-1620 G1202R limits assumed) above, with R145G counted along it

Structure (SMILES): COc1cc(C2CCN(CCCCC#Cc3cccc4c3CN(C3CCC(=O)NC3=O)C4=O)CC2)c(C)cc1Nc1ncc(Cl)c(Nc2ccccc2S(=O)(=O)C(C)C)n1 (stereo not shown) [compound 95, 3-(4-(6-(4-(4-((5-chloro-4-((2-(isopropylsulfonyl)phenyl)amino)pyrimidin-2-yl)amino)-5-methoxy-2-methylphenyl)piperidin-1-yl)hex-1-yn-1-yl)-1-oxoisoindolin-2-yl)piperidine-2,6-dione]
- Dmax (EML4-ALK; [1]): 73%
- DC50 (EML4-ALK; [2]): 1 nM
- Dmax (FAK): 89%
- DC50 (FAK; Table 3): 1 nM
- IC50 (H3122 cells; [3]): 4 nM

Structure (SMILES): COc1cc(CCNCCCCCC#Cc2cccc3c2CN(C2CCC(=O)NC2=O)C3=O)c(C)cc1Nc1ncc(Cl)c(Nc2ccccc2S(=O)(=O)C(C)C)n1 (stereo not shown) [compound 91, 3-(4-(7-((4-((5-chloro-4-((2-(isopropylsulfonyl)phenyl)amino)pyrimidin-2-yl)amino)-5-methoxy-2-methylphenethyl)amino)hept-1-yn-1-yl)-1-oxoisoindolin-2-yl)piperidine-2,6-dione]
- Dmax (FAK): 85%
- DC50 (FAK; Table 3): 4 nM
- IC50 (H3122 cells; [3]): 50 nM

Structure (SMILES): COc1cc(C2CCN(CCCCCC#Cc3cccc4c3C(=O)N(C3CCC(=O)NC3=O)C4=O)CC2)c(C)cc1Nc1ncc(Cl)c(Nc2ccccc2S(=O)(=O)C(C)C)n1 (stereo not shown) [compound 93, 4-(7-(4-(4-((5-chloro-4-((2-(isopropylsulfonyl)phenyl)amino)pyrimidin-2-yl)amino)-5-methoxy-2-methylphenyl)piperidin-1-yl)hept-1-yn-1-yl)-2-(2,6-dioxopiperidin-3-yl)isoindoline-1,3-dione]
- Dmax (EML4-ALK; [1]): 82%
- DC50 (EML4-ALK; [2]): 49 nM
- Dmax (FAK): 89%
- DC50 (FAK; Table 3): 24 nM
- IC50 (H3122 cells; [3]): 202 nM

Structure (SMILES): COc1cc(C2CCN(CCCC#Cc3cccc4c3CN(C3CCC(=O)NC3=O)C4=O)CC2)c(C)cc1Nc1ncc(Cl)c(Nc2ccccc2S(=O)(=O)C(C)C)n1 (stereo not shown) [compound 96, 3-(4-(5-(4-(4-((5-chloro-4-((2-(isopropylsulfonyl)phenyl)amino)pyrimidin-2-yl)amino)-5-methoxy-2-methylphenyl)piperidin-1-yl)pent-1-yn-1-yl)-1-oxoisoindolin-2-yl)piperidine-2,6-dione]
- Dmax (EML4-ALK; [1]): 79%
- DC50 (EML4-ALK; [2]): 3 nM
- ALK degradation by Western blot (G1202R EML4-ALK V3; FIG. 1B, 1D): potent degrader
- pALK inhibition by Western blot (G1202R EML4-ALK V3; [4]): significantly improved pALK inhibition compared to Alectinib and Lorlatinib
- ALK degradation by Western blot (WT EML4-ALK V3; FIG. 1A, 1C): potent degrader
- pALK inhibition by Western blot (WT EML4-ALK V3; [4]): significantly improved pALK inhibition compared to Alectinib and Lorlatinib
- Dmax (FAK): 92%
- DC50 (FAK; Table 3): 2 nM
- IC50 (H3122 cells; [3]): 12 nM

Structure (SMILES): COc1cc(CCN(C)CCCCCOc2cc(-c3scnc3C)ccc2[C@H](C)NC(=O)[C@@H]2C[C@@H](O)CN2C(=O)[C@@H](NC(C)=O)C(C)(C)C)c(C)cc1Nc1ncc(Cl)c(Nc2ccccc2S(=O)(=O)C(C)C)n1 [Compound 54]
- Dmax (EML4-ALK; [5]): 68.4%
- Dmax (EML4-ALK; [10]): 68.2%
- DC50 (EML4-ALK; [7]): 67 nM
- DC50 (EML4-ALK; [11]): 57 nM
- DC50 (EML4-ALK; [8]): 62 nM
- IC50 (H3122 cells; [9]): 73.6 nM

Structure (SMILES): COc1cc(CCNCCCCCOc2cc(-c3scnc3C)ccc2[C@H](C)NC(=O)[C@@H]2C[C@@H](O)CN2C(=O)[C@@H](NC(C)=O)C(C)(C)C)c(C)cc1Nc1ncc(Cl)c(Nc2ccccc2S(=O)(=O)C(C)C)n1 [Compound 53]
- Dmax (EML4-ALK; [5]): 64.9%
- Dmax (EML4-ALK; [10]): 68.2%
- Dmax (EML4-ALK; [6]): 66.5%
- DC50 (EML4-ALK; [7]): 113 nM
- DC50 (EML4-ALK; [11]): 72 nM
- DC50 (EML4-ALK; [8]): 93 nM
- IC50 (H3122 cells; [9]): 121 nM

More lines, now with the values ahead:

- Dmax (FAK): 80%
- DC50 (FAK; Table 3): 8 nM
Structure (SMILES): COc1cc(C2CCN(CC#Cc3ccc4c(c3)CN(C3CCC(=O)NC3=O)C4=O)CC2)c(C)cc1Nc1ncc(Cl)c(Nc2ccccc2S(=O)(=O)C(C)C)n1 (stereo not shown) [compound 97, 3-(5-(3-(4-(4-((5-chloro-4-((2-(isopropylsulfonyl)phenyl)amino)pyrimidin-2-yl)amino)-5-methoxy-2-methylphenyl)piperidin-1-yl)prop-1-yn-1-yl)-1-oxoisoindolin-2-yl)piperidine-2,6-dione]

- Dmax (FAK): 86%
Structure (SMILES): COc1cc(C2CCN(CCCCCC#Cc3cccc4c3CN(C3CCC(=O)NC3=O)C4=O)CC2)c(C)cc1Nc1ncc(Cl)c(Nc2ccccc2S(=O)(=O)C(C)C)n1 (stereo not shown) [compound 94, 3-(4-(7-(4-(4-((5-chloro-4-((2-(isopropylsulfonyl)phenyl)amino)pyrimidin-2-yl)amino)-5-methoxy-2-methylphenyl)piperidin-1-yl)hept-1-yn-1-yl)-1-oxoisoindolin-2-yl)piperidine-2,6-dione]

- ALK Degradation (H3122 cells) Dmax (EML4-ALK; Table 3, H3122 cells, 16 hours): 43%
- DC50 (EML4-ALK; [2]): 9 nM
- DC50 (FAK; Table 3): 10 nM
- FAK Degradation (H3122 cells) Dmax (FAK; Table 3): 70%
- IC50 (H3122 cells; Table 3): 42 nM
Structure (SMILES): COc1cc(N2CCC(NC(=O)CCCCCCCCCC(=O)N[C@H](C(=O)N3C[C@H](O)C[C@H]3C(=O)NCc3ccc(-c4scnc4C)cc3)C(C)(C)C)CC2)ccc1Nc1ncc(Cl)c(Nc2ccccc2P(C)(C)=O)n1 [SIAIS117]

- Dmax (FAK): 93%
- DC50 (FAK; Table 3): 4 nM
- IC50 (H3122 cells; [3]): 50 nM
Structure (SMILES): COc1cc(CCNCCCCCC#Cc2ccc3c(c2)CN(C2CCC(=O)NC2=O)C3=O)c(C)cc1Nc1ncc(Cl)c(Nc2ccccc2S(=O)(=O)C(C)C)n1 (stereo not shown) [compound 92]

- Dmax (EML4-ALK; [5]): 53.3%
- Dmax (EML4-ALK; [6]): 53.3%
- DC50 (EML4-ALK; [7]): 502 nM
- DC50 (EML4-ALK; [8]): 302 nM
- IC50 (H3122 cells; [9]): 219 nM
Structure (SMILES): COc1cc(CCN(C)C(=O)CCOCCOCCOCC#Cc2cccc3c2C(=O)N(C2CCC(=O)NC2=O)C3=O)c(C)cc1Nc1ncc(Cl)c(Nc2ccccc2S(=O)(=O)C(C)C)n1 (stereo not shown) [compound 11, N-(4-((5-chloro-4-((2-(isopropylsulfonyl)phenyl)amino)pyrimidin-2-yl)amino)-5-methoxy-2-methylphenethyl)-3-(2-(2-((3-(2-(2,6-dioxopiperidin-3-yl)-1,3-dioxoisoindolin-4-yl)prop-2-yn-1-yl)oxy)ethoxy)ethoxy)-N-methylpropanamide]

- Dmax (EML4-ALK; NCI-H3122, Table 2, first Dmax column, H3122 EML4-ALK-HiBit, 16 hours, read-out: Degradation Dmax): 59.6%
- Dmax (EML4-ALK; NCI-H3122, Table 2, second Dmax column, H3122 EML4-ALK-HiBit, 16 hours, read-out: Degradation Dmax): 62%
- Dmax (EML4-ALK; NCI-H3122, Table 2, average Dmax, read-out: Degradation Avg. Dmax): 60.8%
- DC50 (EML4-ALK; Table 2, first DC50 column, H3122 EML4-ALK-HiBit, 16 hours, read-out: Degradation DC50): 3270 nM
- DC50 (EML4-ALK; Table 2, second DC50 column, H3122 EML4-ALK-HiBit, 16 hours, read-out: Degradation DC50): 1180 nM
- DC50 (EML4-ALK; Table 2, average DC50, read-out: Degradation Avg. DC50): 2230 nM
- IC50 (H3122 cells; Homo sapiens, NCI-H3122, Table 2): 788 nM
Structure (SMILES): COc1cc(CCNCCCCCSC(C)(C)C(NC(C)=O)C(=O)N2C[C@H](O)C[C@H]2C(=O)N[C@@H](C)c2ccc(-c3scnc3C)cc2)c(C)cc1Nc1ncc(Cl)c(Nc2ccccc2P(C)(C)=O)n1 (stereo partly shown) [Compound 73]
